Reference: article PMC12816581 (Nature Communications, 2025)
Each block holds one molecule with its values, some of them ahead of it.

Key:
PRMT5 = PRMT5 (Homo sapiens, UniProt O14744); test: E-ASMS affinity selection; format: binding
DCAF1 = DCAF1 (Homo sapiens, UniProt Q9Y4B6); test: E-ASMS affinity selection; format: binding; details: DCAF1 beads, negative control protein
USP21 = molecular target: T1, USP21 (Homo sapiens, UniProt Q9UK80); test: E-ASMS affinity selection; format: binding; details: USP21 beads, negative control protein
T1 sequence (Q9UK80 1-565): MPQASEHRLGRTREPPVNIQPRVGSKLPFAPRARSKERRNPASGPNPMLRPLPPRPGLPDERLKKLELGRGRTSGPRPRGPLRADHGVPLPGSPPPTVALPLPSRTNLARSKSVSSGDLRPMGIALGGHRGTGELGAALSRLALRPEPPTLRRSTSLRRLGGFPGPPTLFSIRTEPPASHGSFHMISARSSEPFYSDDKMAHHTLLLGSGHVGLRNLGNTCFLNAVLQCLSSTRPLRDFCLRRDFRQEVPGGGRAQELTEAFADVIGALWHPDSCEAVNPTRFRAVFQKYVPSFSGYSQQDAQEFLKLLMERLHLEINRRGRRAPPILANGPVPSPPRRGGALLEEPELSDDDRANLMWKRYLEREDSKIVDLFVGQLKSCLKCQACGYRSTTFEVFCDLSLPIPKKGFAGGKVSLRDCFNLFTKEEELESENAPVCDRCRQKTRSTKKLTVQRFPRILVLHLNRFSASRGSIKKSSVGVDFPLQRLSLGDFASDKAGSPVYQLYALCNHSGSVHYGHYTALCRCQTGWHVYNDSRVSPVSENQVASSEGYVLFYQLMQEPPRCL

WDR91 = molecular target: T2, WDR91 (Homo sapiens, UniProt A4D1P6); format: binding
T2 sequence (A4D1P6 1-747): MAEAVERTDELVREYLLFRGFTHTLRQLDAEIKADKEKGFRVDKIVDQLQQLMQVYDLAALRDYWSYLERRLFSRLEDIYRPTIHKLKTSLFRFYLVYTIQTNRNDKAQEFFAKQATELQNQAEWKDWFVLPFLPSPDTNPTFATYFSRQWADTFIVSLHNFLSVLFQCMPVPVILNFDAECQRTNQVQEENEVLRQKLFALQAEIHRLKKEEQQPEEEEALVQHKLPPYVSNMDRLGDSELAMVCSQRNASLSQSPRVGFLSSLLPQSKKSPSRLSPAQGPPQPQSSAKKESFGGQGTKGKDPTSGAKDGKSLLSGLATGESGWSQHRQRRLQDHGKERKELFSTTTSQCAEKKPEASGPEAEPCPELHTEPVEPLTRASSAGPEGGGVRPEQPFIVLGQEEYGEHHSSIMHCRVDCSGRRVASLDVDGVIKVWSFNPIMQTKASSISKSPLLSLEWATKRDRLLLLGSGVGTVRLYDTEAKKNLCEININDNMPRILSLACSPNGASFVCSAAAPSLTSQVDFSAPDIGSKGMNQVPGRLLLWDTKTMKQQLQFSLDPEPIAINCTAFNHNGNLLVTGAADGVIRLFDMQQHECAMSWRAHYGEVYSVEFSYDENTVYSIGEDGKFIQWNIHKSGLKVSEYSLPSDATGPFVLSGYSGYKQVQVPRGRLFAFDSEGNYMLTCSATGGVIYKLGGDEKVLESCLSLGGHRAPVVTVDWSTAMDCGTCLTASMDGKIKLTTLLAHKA

[1] = Chiral stability assessment via hydrogen-deuterium; format: physicochemical; details: binding buffer with D2O, 4 °C, 8 h; indicates potential spontaneous racemization
WDR55 [2] = molecular target: T3, WDR55 (Homo sapiens, UniProt Q9H6Y2); format: binding
T3 sequence (Q9H6Y2 1-383): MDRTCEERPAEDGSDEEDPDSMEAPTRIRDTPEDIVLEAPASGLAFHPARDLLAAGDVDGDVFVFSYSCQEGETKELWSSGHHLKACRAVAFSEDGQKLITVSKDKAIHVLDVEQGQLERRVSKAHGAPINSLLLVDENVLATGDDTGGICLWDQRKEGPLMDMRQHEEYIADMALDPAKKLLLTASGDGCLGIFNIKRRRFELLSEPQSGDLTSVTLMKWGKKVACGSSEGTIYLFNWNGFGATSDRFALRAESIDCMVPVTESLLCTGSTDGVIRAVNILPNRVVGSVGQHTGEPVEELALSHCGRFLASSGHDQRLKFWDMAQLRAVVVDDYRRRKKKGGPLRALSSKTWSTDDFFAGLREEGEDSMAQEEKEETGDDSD

WDR55 [3] = molecular target: T3, WDR55; test: biochemical; format: binding
DDB1 = DDB1 (Homo sapiens, UniProt Q16531); test: E-ASMS affinity selection; format: binding
DDB1, sequence (Q16531 whole entry): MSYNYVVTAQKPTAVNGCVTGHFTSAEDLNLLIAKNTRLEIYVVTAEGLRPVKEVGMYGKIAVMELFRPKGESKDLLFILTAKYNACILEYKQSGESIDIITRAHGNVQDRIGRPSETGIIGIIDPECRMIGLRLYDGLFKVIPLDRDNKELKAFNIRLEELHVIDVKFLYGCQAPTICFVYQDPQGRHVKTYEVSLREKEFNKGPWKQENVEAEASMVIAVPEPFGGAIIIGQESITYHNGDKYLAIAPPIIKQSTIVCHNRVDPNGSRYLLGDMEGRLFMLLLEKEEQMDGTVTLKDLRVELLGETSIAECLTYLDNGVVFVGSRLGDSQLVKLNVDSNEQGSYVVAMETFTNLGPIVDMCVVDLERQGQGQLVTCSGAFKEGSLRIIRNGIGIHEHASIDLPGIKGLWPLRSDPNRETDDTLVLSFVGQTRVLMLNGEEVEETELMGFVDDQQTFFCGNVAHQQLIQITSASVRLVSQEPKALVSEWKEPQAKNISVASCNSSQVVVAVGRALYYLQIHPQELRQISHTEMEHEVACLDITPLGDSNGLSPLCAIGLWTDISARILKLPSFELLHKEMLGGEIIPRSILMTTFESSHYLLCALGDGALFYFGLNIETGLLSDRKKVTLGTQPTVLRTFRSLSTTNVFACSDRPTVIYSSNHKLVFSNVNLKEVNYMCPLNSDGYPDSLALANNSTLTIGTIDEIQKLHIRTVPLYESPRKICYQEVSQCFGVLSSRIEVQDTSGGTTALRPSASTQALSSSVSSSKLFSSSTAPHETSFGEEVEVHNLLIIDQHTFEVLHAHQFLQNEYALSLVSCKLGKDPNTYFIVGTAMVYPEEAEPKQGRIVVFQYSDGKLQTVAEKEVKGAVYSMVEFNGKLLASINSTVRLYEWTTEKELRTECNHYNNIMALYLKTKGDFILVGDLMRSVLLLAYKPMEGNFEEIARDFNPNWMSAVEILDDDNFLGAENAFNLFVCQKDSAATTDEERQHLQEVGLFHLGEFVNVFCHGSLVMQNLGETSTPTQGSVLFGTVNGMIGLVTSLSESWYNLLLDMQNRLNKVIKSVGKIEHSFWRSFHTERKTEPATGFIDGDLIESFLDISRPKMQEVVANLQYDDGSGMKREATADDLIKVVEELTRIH

PRMT5, sequence (O14744 whole entry): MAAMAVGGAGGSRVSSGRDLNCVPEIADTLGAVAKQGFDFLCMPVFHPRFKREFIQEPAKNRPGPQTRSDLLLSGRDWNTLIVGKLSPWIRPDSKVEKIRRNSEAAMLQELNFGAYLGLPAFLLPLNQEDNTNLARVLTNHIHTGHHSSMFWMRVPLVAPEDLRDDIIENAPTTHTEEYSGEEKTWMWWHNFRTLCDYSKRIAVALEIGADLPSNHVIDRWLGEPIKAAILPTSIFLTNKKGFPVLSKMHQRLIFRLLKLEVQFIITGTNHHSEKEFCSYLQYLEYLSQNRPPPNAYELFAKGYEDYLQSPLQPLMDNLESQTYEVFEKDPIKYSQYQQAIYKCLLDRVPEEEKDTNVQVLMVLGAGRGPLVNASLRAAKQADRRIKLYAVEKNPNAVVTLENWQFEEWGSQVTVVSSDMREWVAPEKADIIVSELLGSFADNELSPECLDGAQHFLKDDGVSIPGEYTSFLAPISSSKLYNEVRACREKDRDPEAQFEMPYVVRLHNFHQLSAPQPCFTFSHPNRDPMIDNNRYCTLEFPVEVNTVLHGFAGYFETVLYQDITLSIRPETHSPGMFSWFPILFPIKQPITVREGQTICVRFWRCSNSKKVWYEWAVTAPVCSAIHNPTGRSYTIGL
PRMT5, sequence (Q9BQA1 whole entry partner): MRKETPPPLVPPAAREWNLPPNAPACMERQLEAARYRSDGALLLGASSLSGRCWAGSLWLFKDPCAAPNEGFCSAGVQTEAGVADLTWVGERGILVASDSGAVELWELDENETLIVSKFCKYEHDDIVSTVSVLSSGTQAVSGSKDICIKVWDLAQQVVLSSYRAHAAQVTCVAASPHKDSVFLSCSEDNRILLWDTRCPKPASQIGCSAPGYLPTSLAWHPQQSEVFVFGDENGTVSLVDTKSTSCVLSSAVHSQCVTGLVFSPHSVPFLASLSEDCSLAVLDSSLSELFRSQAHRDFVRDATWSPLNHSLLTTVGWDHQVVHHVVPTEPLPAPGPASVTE
DCAF1, sequence (Q9Y4B6 whole entry): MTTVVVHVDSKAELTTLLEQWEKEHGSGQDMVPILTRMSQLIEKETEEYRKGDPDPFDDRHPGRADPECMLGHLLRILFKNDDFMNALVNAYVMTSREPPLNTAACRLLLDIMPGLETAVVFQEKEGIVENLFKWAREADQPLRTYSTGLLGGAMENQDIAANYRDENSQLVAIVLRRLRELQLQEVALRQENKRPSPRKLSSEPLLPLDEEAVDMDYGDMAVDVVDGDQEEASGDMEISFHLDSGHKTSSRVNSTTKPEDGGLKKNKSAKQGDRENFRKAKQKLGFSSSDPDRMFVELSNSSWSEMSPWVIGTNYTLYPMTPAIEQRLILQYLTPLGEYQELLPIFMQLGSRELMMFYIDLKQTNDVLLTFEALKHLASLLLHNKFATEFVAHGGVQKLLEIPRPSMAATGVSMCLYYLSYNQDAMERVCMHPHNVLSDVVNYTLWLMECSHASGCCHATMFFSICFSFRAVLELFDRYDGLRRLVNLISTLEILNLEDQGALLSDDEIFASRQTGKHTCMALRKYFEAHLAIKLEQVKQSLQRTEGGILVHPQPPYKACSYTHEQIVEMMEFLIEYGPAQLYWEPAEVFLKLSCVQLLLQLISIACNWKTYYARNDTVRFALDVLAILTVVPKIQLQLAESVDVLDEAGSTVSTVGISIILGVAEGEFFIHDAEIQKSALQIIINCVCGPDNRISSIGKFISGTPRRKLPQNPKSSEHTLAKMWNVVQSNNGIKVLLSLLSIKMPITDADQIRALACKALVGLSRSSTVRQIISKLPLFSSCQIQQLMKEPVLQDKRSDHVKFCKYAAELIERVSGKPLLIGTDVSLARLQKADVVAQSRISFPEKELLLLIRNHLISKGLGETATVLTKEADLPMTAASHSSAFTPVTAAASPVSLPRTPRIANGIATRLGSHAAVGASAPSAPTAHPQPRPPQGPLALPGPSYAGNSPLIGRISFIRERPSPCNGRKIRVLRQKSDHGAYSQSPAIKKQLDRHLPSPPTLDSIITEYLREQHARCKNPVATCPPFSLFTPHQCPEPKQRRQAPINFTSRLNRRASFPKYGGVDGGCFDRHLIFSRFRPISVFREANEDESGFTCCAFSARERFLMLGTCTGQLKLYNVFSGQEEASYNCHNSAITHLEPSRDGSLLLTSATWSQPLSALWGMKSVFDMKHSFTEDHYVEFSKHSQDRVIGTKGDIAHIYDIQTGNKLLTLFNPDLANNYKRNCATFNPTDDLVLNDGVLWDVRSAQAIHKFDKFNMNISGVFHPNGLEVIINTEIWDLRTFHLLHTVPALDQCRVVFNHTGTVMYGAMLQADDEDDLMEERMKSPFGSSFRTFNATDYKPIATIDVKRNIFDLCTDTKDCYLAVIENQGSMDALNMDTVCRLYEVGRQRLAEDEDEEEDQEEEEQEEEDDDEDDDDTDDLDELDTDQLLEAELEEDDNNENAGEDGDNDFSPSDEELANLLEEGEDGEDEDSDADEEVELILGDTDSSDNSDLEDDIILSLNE

Enantioselective enrichment (chiral chromatography of eluate) (PRMT5; PRMT5 eluate): Enantioselective enrichment
Structure (SMILES): Nc1ncnc2c1ccn2[C@@H]1O[C@H]([C@H](O)c2ccccc2)[C@@H](O)[C@H]1O [(S)-LLY283]

Enrichment in methanol eluate (E-ASMS) (DCAF1): no significant enrichment
Enrichment in methanol eluate (E-ASMS) (PRMT5; PRMT5 beads, negative control protein): no significant enrichment
Enrichment in methanol eluate (E-ASMS) (USP21): no significant enrichment
Structure (SMILES): Nc1cccc2c1CN(C1CCC(=O)NC1=O)C2=O (stereo not drawn) [Lenalidomide, lenalidomide]

Enantioselective binding (chiral chromatography of eluate) (WDR91; WDR91-bead eluate): did not show enantioselectivity
Enrichment in methanol eluate (E-ASMS) (WDR91; WDR91 beads vs other proteins screened in parallel): enriched
Deuterium incorporation (H/D exchange) [1]: showed deuterium incorporation
Structure (SMILES): CN1C(=O)C(c2c(-c3ccc(Cl)cc3)[nH]c3c2c(=O)[nH]c(=O)n3C)c2ccccc21 (stereo not drawn) [XS381295]

Enantioselective binding (chiral chromatography of eluate) (WDR55 [2]; WDR55-bead eluate): displayed enantioselectivity
Enrichment in methanol eluate (E-ASMS) (WDR55 [2]; WDR55 beads): enriched
Kd (WDR55 [3]): 11 µM
Structure (SMILES): CC1Cc2cc(-c3ccnc4ncnn34)ccc2O1 (stereo not drawn) [XS381774]

Enrichment in methanol eluate (E-ASMS) (DDB1; DDB1 beads vs other proteins screened in parallel): specifically enriched
Structure (SMILES): CCOc1cccc(C2CC(=O)Nc3c2c(C)nn3-c2ccc3nncn3n2)c1 (stereo not drawn) [XS381952]
Enantioselective enrichment (chiral chromatography of eluate) (DDB1; DDB1-bead eluate vs ratio of enantiomers in starting library): one of the two enantiomers was clearly enriched
